Consider seven compounds from patent US11753407B2, “Compounds for treating spinal muscular atrophy” (PTC Therapeutics, Inc., priority 2012, dated 2023).

For data set [1], the system named is SMN2 minigene mRNA (SMN2-A minigene) in HEK293H cells. Description: SMN2 minigene mRNA splicing RT-qPCR assay in cultured cells. In kind it is cell-based, human. Conditions: Homo sapiens, HEK293-H; concentration increasing full length SMN2 mRNA 1.5-fold relative to vehicle-treated cells; HEK293H cells with SMN2-A minigene, 24 hours, 7-point concentration data; read-out: EC1.5x for production of full length SMN2 mRNA. Summed up:
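EC1.5× = concentration raising full-length SMN2 minigene mRNA 1.5-fold over vehicle, from 7-point curves in duplicate. Stably transfected HEK293H cells exposed 24 h at 37 °C; lysates assayed by multiplex RT-qPCR, minigene FL signal normalized to GAPDH via modified ΔΔCt.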
In general terms: Real-time PCR tracks product formation cycle by cycle.

The subject of data set [2] is Smn protein in SMA patient fibroblast cells (GM03813). Kind of data set: Smn protein assay in cultured cells (SMN HTRF). It counts as cell-based, human. Particulars: SMA patient fibroblast cells, 48 hours; for EC1.5x for Smn protein expression: 7-point concentration curve, SMN HTRF, concentration producing 1.5 times Smn protein vs DMSO vehicle control; for maximum fold (Fold) increase of Smn protein: 7-point concentration data, fold relative to vehicle control. Summed up: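 Smn protein quantified by HTRF with anti-SMN d2/kryptate pair, 665/620 nm ratio blank-corrected, in RIPA lysates of GM03813 fibroblasts after 48 h compound exposure (7 concentrations, 3.16-fold steps, triplicates). Values: concentration producing 1.5× vehicle Smn level, and maximal fold increase.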
On the technique in general: In TR-FRET formats the signal depends on donor and acceptor labels being close together.

SMILES strings stand for the structures. Where only a bound is given, the exact number is not on record here.

`COc1ccc(-c2ccc3nc(C4CCNCC4)cc(=O)n3c2)cc1F` [Compound 316, 7-(3-fluoro-4-methoxyphenyl)-2-(piperidin-4-yl)-4H-pyrido[1,2-a]pyrimidin-4-one] displayed a melting point of 278 to 281 °C. The EC (1.5-fold increase) in data set [1] fell in the range of 0.1 to 0.3 µM. In addition, in data set [2], the “EC1.5x for Smn protein expression” value is “** (an EC1.5× between >1 μM and ≤3 μM is indicated by two stars (**))”; the “maximum fold (Fold) increase of Smn protein” value (from here on “maximum fold (Fold) increase”) is on record as “***** (a fold increase >1.65 is indicated by five stars (*****))”.
For `COc1ccc(-c2ccc3nc(C4CCN(C)CC4)cc(=O)n3c2)cc1F` [Compound 317, 7-(3-fluoro-4-methoxyphenyl)-2-(1-methylpiperidin-4-yl)-4H-pyrido[1,2-a]pyrimidin-4-one], the melting point fell in the range of 202 to 205 °C. Also, in data set [1], the EC (1.5-fold increase) fell in the range of 0.3 to 1 µM. In data set [2], the “EC1.5x for Smn protein expression” value is “** (an EC1.5× between >1 μM and ≤3 μM is indicated by two stars (**))”; the “maximum fold (Fold) increase” value is “**** (a fold increase between >1.5 and ≤1.65 is indicated by four stars (****))”.
As for `CCN1CC=C(c2ccc3nc(-c4cc(F)c5nc(C)oc5c4)cc(=O)n3c2)CC1` [Compound 318, 7-(1-ethyl-1,2,3,6-tetrahydropyridin-4-yl)-2-(4-fluoro-2-methyl-1,3-benzoxazol-6-yl)-4H-pyrido[1,2-a]pyrimidin-4-one], the melting point is 151 to 154 °C. Further, the EC (1.5-fold increase) in data set [1] was below 0.1 µM. For the same compound, in data set [2], the “EC1.5x for Smn protein expression” value is given as “**** (an EC1.5x≤0.3 μM is indicated by four stars (****))” and the “maximum fold (Fold) increase” value is given as “***** (a fold increase >1.65 is indicated by five stars (*****))”.
Turning to `CCCN1CC=C(c2ccc3nc(-c4cc(F)c5nc(C)oc5c4)cc(=O)n3c2)CC1` [Compound 319, 2-(4-fluoro-2-methyl-1,3-benzoxazol-6-yl)-7-(1-propyl-1,2,3,6-tetrahydropyridin-4-yl)-4H-pyrido[1,2-a]pyrimidin-4-one], the melting point fell in the range of 159 to 162 °C. For the same compound, in data set [1], the EC (1.5-fold increase) is below 0.1 µM. Also, in data set [2], the “EC1.5x for Smn protein expression” value is listed as “**** (an EC1.5x≤0.3 μM is indicated by four stars (****))”; the “maximum fold (Fold) increase” value is “**** (a fold increase between >1.5 and ≤1.65 is indicated by four stars (****))”.
The compound `CCN1CCN(c2ccc3cc(-c4ccc5nc(C)oc5c4)cc(=O)n3c2)C[C@@H]1C` [Compound 324, 7-[(3S)-4-ethyl-3-methylpiperazin-1-yl]-2-(2-methyl-1,3-benzoxazol-6-yl)-4H-quinolizin-4-one] came in with a melting point of 288 to 290 °C. Further, in data set [1], the EC (1.5-fold increase) is 0.3 to 1 µM. Also, in data set [2], the “maximum fold (Fold) increase” value was “*** (a fold increase between >1.35 and ≤1.5 is indicated by three stars (***))”.
`Cc1nc2ccc(-c3cc(=O)n4cc(N5CCN(C)[C@@H](C)C5)ccc4c3)cc2o1` [Compound 325, 7-[(3S)-3,4-dimethylpiperazin-1-yl]-2-(2-methyl-1,3-benzoxazol-6-yl)-4H-quinolizin-4-one]: the melting point is above 300 °C. Further, in data set [1], the EC (1.5-fold increase) is 0.3 to 1 µM. Further, the “maximum fold (Fold) increase” value in data set [2] is “*** (a fold increase between >1.35 and ≤1.5 is indicated by three stars (***))”.
In the case of `Cc1nc2ccc(-c3cc(=O)n4cc(N5CCC(N)CC5)ccc4c3)cc2o1` [Compound 326, 7-(4-aminopiperidin-1-yl)-2-(2-methyl-1,3-benzoxazol-6-yl)-4H-quinolizin-4-one], the melting point lay in the range of 288 to 290 °C. Also, the EC (1.5-fold increase) in data set [1] was 1 to 3 µM. In data set [2], the “EC1.5x for Smn protein expression” value is “** (an EC1.5× between >1 μM and ≤3 μM is indicated by two stars (**))”; the “maximum fold (Fold) increase” value was “*** (a fold increase between >1.35 and ≤1.5 is indicated by three stars (***))”.

In general, melting point refers to the temperature, or range, at which the solid turns liquid.
